# In article PMC3578935, “Biochemical Characterization of CTX-M-15 from Enterobacter cloacae and Designing a Novel Non-β-Lactam-β-Lactamase Inhibitor” (PLoS ONE, 2013):
# Where two headings read alike, the source gives them in different places.
# How the values were obtained:
# CTX-M-15 [1] = target: T1, CTX-M-15 (Escherichia coli, UniProt Q9EXV5); conditions: for K m or K i: K m for good substrates, for poor substrates (ceftazidime, cefepime, aztreonam) determined as K i against 100 µM nitrocefin
# Protocol: The inhibitors used were Clavulanic acid, Sulabctam, Tazobactam and ZINC03787097.
# Hydrolysis of β-lactam antibiotics was detected by monitoring the variation in the absorbance due to cleavage of β-lactam ring in 50 mM phosphate buffer, pH 7.0 [28]. All the measurements were taken in triplicate on Shimadzu UV-VIS spectrophotometer (UV-1800). The reaction was performed in a total volume of 500 µl at 30°C. For dilution of the enzyme and to prevent denaturation, BSA was added to a final concentration of 20 µg/ml.
# [2] = tested on: E. coli DH5α (Null Plasmid); experiment: MIC by micro-dilution, null plasmid control strain; format: cell-based; conditions: Escherichia coli, read-out: MIC DH5α(Null Plasmid)
# [3] = tested on: E. coli DH5α transformed with recombinant bla CTX-M-15 (pQE-2-CTX-M-15); experiment: MIC by micro-dilution, β-lactams alone or with inhibitors; format: cell-based; conditions: for MIC: Escherichia coli, read-out: MIC DH5α(pQE-2-CTX-M-15), E. coli DH5α with bla CTX-M-15 cloned from E. cloacae EC-15; for fold lowering of MIC of cefotaxime in combination with inhibitor: DH5α transformed with bla CTX-M-15
# Protocol: E. coli DH5α and E. coli BL21 (DE3) were used for cloning and protein expression experiments, respectively. MICs were determined on E. coli DH5α transformed with cloned CTX-M-15 from Enterobacter cloacae clinical strain EC-15.
# The MICs for various antibiotics alone or in combination with various inhibitors (clavulanic acid, sulbactam, tazobactam and ZINC03787097) were determined by micro-dilution method and the results were interpreted according to Clinical Laboratory Standards Institute (CLSI) guidelines. Briefly, E. coli DH5α cells transformed with CTX-M-15 was treated with increasing concentrations of the antibiotics ranging from 0.5 to 2000 µg/ml in a series of two fold dilutions. The inhibitors clavulanic acid, sulbactam and tazobactam were used at a fixed concentration of 4 µg/ml, while ZINC03787097 was used at 20 µg/ml.
# CTX-M-15 [4] = target: T1, CTX-M-15; experiment: Enzyme inhibition kinetics (acylation/deacylation, competition with nitrocefin); conditions: for K′: dissociation constant of the Henri-Michaelis complex; for k +2 x 10^−2: first-order acylation constant, values x 10^−2
# Source text: The parameters k +2, k +3 and K′ are the first-order acylation and deacylation constants, and the dissociation constant of the Henri-Michaelis complex, respectively.
# where, v o, v t and v ss are the rates of utilization of the reporter substrate at times 0 and t, and after the steady-state has been established, respectively.
# The individual parameters, k +2, k +3 and K′, were derived from the dependence of k i upon inhibitor concentration, [C], on the basis of the following equation: [drawing 10]
# When the concentration of inhibitor [C] is well below K′, k i varies linearly the above equations is simplified as: [drawing 11]
# The k +2/K′ value is then obtained from the slope of the line, whereas k +3 is given by the intercept at [C] = 0. Conversely, if [C] is much larger than K′ (K m+[S])/K m, then k i = k +2+k +3, and is independent of [C]
# CTX-M-15 [5] = target: T1, CTX-M-15; experiment: IC50 determination, nitrocefin hydrolysis after 5 min pre-incubation; format: biochemical, Enterobacter cloacae; parameters: His tag (inferred from the pQE-2 vector and Ni-NTA purification); made in house; host or cells: E. coli BL21 (DE3); conditions: IC50, 5 min pre-incubation at 30°C; 100 µM nitrocefin
# Protocol: The 50% inhibitory concentration (IC50) was determined as the concentration of the inhibitor that inhibited hydrolytic activity of the enzyme by 50%.
# CTX-M-15 [6] = target: T1, CTX-M-15; format: biochemical, Enterobacter cloacae; parameters: His tag (inferred from the pQE-2 vector and Ni-NTA purification); made in house; host or cells: E. coli BL21 (DE3); conditions: 0.00 µM ZINC03787097; 0.50 nM CTX-M-15
# [7] = in combinations clavulanic acid, sulbactam, tazobactam at 4 µg/ml, ZINC03787097 at 20 µg/ml
# [8] = K i calculated as K i = k +3 K/k +2, calculated value
# [9] = K i, determined at steady-state, competition with 100 µM nitrocefin
smiles,measurement,setting,value
CO/N=C(\C(=O)N[C@@H]1C(=O)N2C(C(=O)O)=C(COC(C)=O)CS[C@H]12)c1csc(N)n1 [Cefotaxime],K m or K i,CTX-M-15 [1],60 ± 3 µM
same,MIC,[2]; [7],0.25 µg/mL
same,MIC DH5α(pQE-2-CTX-M-15),"[3]; E. coli DH5α with bla CTX-M-15 cloned from E. cloacae EC-15, in combinations clavulanic acid, sulbactam, tazobactam at 4 µg/ml, ZINC03787097 at 20 µg/ml, listed as Cefotaxime (III)",512 µg/ml
same,MIC,[3]; [7],500 to 1000 µg/mL
CC1(C)S[C@@H]2[C@H](NC(=O)[C@H](N)c3ccccc3)C(=O)N2[C@H]1C(=O)O [Ampicillin],K m or K i,CTX-M-15 [1],15 ± 2 µM
same,MIC,[2]; [7],2 µg/mL
C[C@]1(Cn2ccnn2)[C@H](C(=O)O)N2C(=O)C[C@H]2S1(=O)=O [Tazobactam],Ki,CTX-M-15 [4]; [8],0.013 µM
same,Ki,CTX-M-15 [4]; [9],0.017 µM
same,K′,CTX-M-15 [4],0.03 µM
same,k +2 x 10^−2,CTX-M-15 [4],1.3 s^−1
same,IC50,CTX-M-15 [5],0.001 µM
same,fold lowering of MIC of cefotaxime in combination with inhibitor,[3],8 fold
same,fold reduction of MICs of β-lactam antibiotics,[3]; inhibitor in combination with β-lactam antibiotics,2–16 folds
CO/N=C(\C(=O)N[C@@H]1C(=O)N2C(C(=O)O)=C(CSc3nc(=O)c(=O)[nH]n3C)CS[C@H]12)c1csc(N)n1 [Ceftriaxone],K m or K i,CTX-M-15 [1],33 ± 2 µM
same,MIC,[2]; [7],0.06 µg/mL
O=C(O)[C@H]1/C(=C/CO)O[C@@H]2CC(=O)N21 [Clavulanic acid],Ki,CTX-M-15 [4]; [8],0.106 µM
same,Ki,CTX-M-15 [4]; [9],0.099 µM
same,K′,CTX-M-15 [4],0.72 µM
same,k +2 x 10^−2,CTX-M-15 [4],1.3 s^−1
same,IC50,CTX-M-15 [5],0.014 µM
same,fold lowering of MIC of cefotaxime in combination with inhibitor,[3],16 fold
CO[C@@]1(NC(=O)Cc2cccs2)C(=O)N2C(C(=O)O)=C(COC(N)=O)CS[C@@H]21 [Cefoxitin],MIC,[2]; [7],2 µg/mL
same,MIC,[3]; [7],16 µg/mL
O=C(Cc1cccs1)N[C@@H]1C(=O)N2C(C(=O)O)=C(/C=C/c3ccc([N+](=O)[O-])cc3[N+](=O)[O-])CS[C@H]12 [Nitrocefin],k cat,"CTX-M-15 [1]; 50 mM phosphate buffer pH 7.0, 30°C",582 s⁻¹
same,K m or K i,CTX-M-15 [1],35 ± 4 µM
same,K m for nitrocefin hydrolysis,CTX-M-15 [6],42 µM
Cc1nnc(SCC2=C(C(=O)O)N3C(=O)[C@@H](NC(=O)Cn4cnnn4)[C@H]3SC2)s1 [Cefazolin],MIC,[2],2 µg/mL
